Data as given in ChEMBL document CHEMBL1151624, “Isolation of artemisinin (qinghaosu) from Artemisia annua growing in the United States” (J Nat Prod, 1984).
Values after ≈ are worked out from the molar mass of the structure shown.

What was measured:
[1] = test system: Neisseria meningitidis; test: Antimicrobial activity against Neisseria meningitidis; assay type: functional
[2] = test system: Proteus sp.; test: Antimicrobial activity against Proteus Sp.; assay type: functional; conditions: Proteus sp. (in: enterobacteria)
[3] = test system: Plasmodium falciparum; test: Antimalarial activity against chloroquine-resistant Plasmodium falciparum Smith by semiautomated micro dilution assay; assay type: functional, organism-based
[4] = test system: Enterococcus faecalis; test: Antimicrobial activity against Streptococcus faecalis; assay type: functional
[5] = test system: Serratia marcescens; test: Antimicrobial activity against Serratia marcescens; assay type: functional
[6] = test system: Neisseria gonorrhoeae; test: Antimicrobial activity against Neisseria gonorrhoeae; assay type: functional
[7] = test system: Shigella dysenteriae; test: Antimicrobial activity against Shigella dysenteriae; assay type: functional
[8] = test system: Klebsiella; test: Antimicrobial activity against Klebsiella; assay type: functional
[9] = test system: Plasmodium falciparum; test: Antimalarial activity against chloroquine-sensitive Plasmodium falciparum CAMP by semiautomated micro dilution assay; assay type: functional, organism-based
[10] = test system: Escherichia coli; test: Antimicrobial activity against Escherichia coli; assay type: functional
[11] = test system: Staphylococcus aureus; test: Antimicrobial activity against Staphylococcus aureus; assay type: functional

Structure (SMILES)	MIC [1] [µg/mL]	MIC [2] [µg/mL]	IC50 [3] [µg/mL]	MIC [4] [µg/mL]	MIC [5] [µg/mL]	MIC [6] [µg/mL]	MIC [7] [µg/mL]	MIC [8] [µg/mL]	IC50 [9] [µg/mL]	MIC [10] [µg/mL]	MIC [11] [µg/mL]
C[C@@H]1CC[C@H]2[C@@H](C)C(=O)O[C@@H]3O[C@@]4(C)CC[C@@H]1[C@]32OO4 [ARTEMISININ]	> 1	> 32	< 0.0034	> 32	> 32	> 1	> 32	> 32	< 0.0034	> 32	> 32
OC(c1cc(C(F)(F)F)nc2c(C(F)(F)F)cccc12)C1CCCCN1 (stereo not drawn) [MEFLOQUINE]	–	–	0.0025 (≈ 0.00661 µM)	–	–	–	–	–	0.0035 (≈ 0.00925 µM)	–	–
